Experimental findings from PubChem BioAssay AID179 (DTP/NCI, 2004) are described below.

This test relates to CEM cells HIV-1 protection, formazan growth assay. Briefly: NCI AIDS Antiviral Assay. To be noted: for IC50: measured here: growth of uninfected CEM cells. The method in brief:
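Screen of anti-HIV-1 activity in human CEM cells using a formazan-based growth measurement at five drug concentrations. Hits with 50% or greater protection were repeated, and confirmation required reproducible complete protection.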

Where “and” joins values, the source holds several entries; their conditions need not be identical. Equal values may be shown once. Calls of active or inactive are those of the source.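 The calls were made as follows: active = compounds giving half or more protection of infected cells from virus-caused growth loss, again on retest; inactive = the rest.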 Where a SMILES comes first, the peptide text is derived from it. A value given as a limit tells only on which side of the number the result lay.

Take `CCCC1(CCC)c2cc(/C=N\O)ccc2-c2ccc(-c3ccc(C(C)(C)C)cc3)cc21`: the EC50 is more than 200 µM and the IC50 came to 37.2 µM.
Consider `CC1OC=CC(=O)C1O` (centres undefined), for which the outcome was inactive.
Turning to `Cc1ccc(N2COc3ccc4ccccc4c3C2)cc1`, the EC50 was more than 200 µM and the IC50 worked out at 26.3 µM.
For `Cc1ccc2oc(=O)c(C#N)c(/C=C/c3cccc4ccccc34)c2c1`, in that order: more than 200 µM and more than 200 µM.
On to `CC12CCC(=O)N1c1cncnc1N2` (centres undefined), for which the EC50 was more than 1320 µM and the IC50 is more than 1320 µM.
With `Cc1ccc(S(=O)(=O)c2[nH]cc(-c3c[nH]c(S(=O)(=O)c4ccc(C)cc4)c3C3CCCCC3)c2C2CCCCC2)cc1`, the result was inactive.
On to `COC1=C(C)C(=O)c2c(c(COC(N)=O)c3n2CC(OC(C)=O)C3OC(C)=O)C1=O` (centres undefined), for which the EC50 was more than 2 µM and the 50% inhibitory concentration (IC50) stood at 0.178 µM.
As to `CCC(C)C(NC(=O)C(CCC(N)=O)NC(=O)CN)C(=O)NC(Cc1ccccc1)C(=O)NC(CO)C(=O)NC(CCCN=C(N)N)C(N)=O` (centres undefined) (H-GQIFSR-NH2; configuration not given here), the outcome was inactive.
Take `O=C(NC(=O)c1ccccc1[N+](=O)[O-])Nc1ccc(Oc2ncc(Cl)cn2)c(C(F)(F)F)c1`: the outcome was inactive.
As to `COc1ccc(C(=O)CC(c2ccc(OC)c(OC)c2)c2c(O)c3ccccc3oc2=O)cc1OC` (centres undefined), the EC50 is more than 200 µM and the IC50 was found to be 117 µM.
Turning to `CCOC(=O)[C@H]1Nc2ccc(OC)cc2C2c3ccccc3CC21` (some centres undefined), the EC50 was more than 57.5 µM and the IC50 is more than 57.5 µM.
With `CN(C)CC/C(=N\Nc1ccc(Cl)cc1)c1ccccc1`, the result was inactive.
Take `O=C(N=Nc1ccccc1Br)NNc1ccccc1Br`: the EC50 was more than 200 µM and the IC50 was more than 100 µM.
As to `COc1cc(OC)c2c(c1)OC1OC(=O)CC21` (centres undefined), the EC50 was more than 209 µM and the IC50 was more than 209 µM.
In the case of `OCn1nc(Cl)c2cc(Cl)ccc21`, the EC50 is more than 200 µM and the 50% inhibitory concentration (IC50) turned out to be 56.2 µM.
Take `CNC(=O)O/N=C(\C(=N\OC(=O)NC)c1ccccc1)c1ccccc1`: the outcome was inactive.
In the case of `COc1ccc2c(c1)CC[C@@H]1[C@@H]2CC[C@]2(C)/C(=N/OCCN3CCCC3)CC[C@@H]12`, the EC50 is more than 200 µM and the concentration for half-maximal inhibition (IC50) turned out to be 1.12 µM.
In the case of `CCCCCCCC(=O)N1C2CC3CCC2(CS1(=O)=O)C3(C)C` (centres undefined), the EC50 is more than 200 µM and the half-maximal inhibitory concentration (IC50) amounted to 19.1 µM.
For the compound `CC1(C)CS(=O)(=O)CC(C)(C)C(=N/N)/C1=N\N`, the EC50 was more than 200 µM and the 50% inhibitory concentration (IC50) is more than 200 µM.
Regarding `C=C1CCCCCCCCCCC12SCCCS2`, the EC50 was more than 200 µM and the 50% inhibitory concentration (IC50) is more than 200 µM.
As for `C#CCCCOc1ncccn1`, the EC50 is more than 200 µM and the 50% inhibitory concentration (IC50) was more than 200 µM.
As for `CC(C)=CCC/C(C)=C/CCC(C)/C=C/C(=O)NC[C@@H]1CC[N@+]2(C)CCCC[C@H]12` (some centres undefined), the EC50 is more than 501 µM and the 50% inhibitory concentration (IC50) stood at 23.4 µM.
In the same order, the values of `C=C1C2CCC3(C4C[C@H]5C6(CCC[C@@]5(C)[C@H]5OCCN5[C@H]6O4)[C@@H]3C2)C1OC(C)=O` (some centres undefined) are more than 12.9 µM and more than 12.9 µM.
As for `COc1ccc(CCN2CCC(C#N)(c3ccc(OC)c(OC)c3)CC2)cc1OC`, the EC50 was more than 57.5 µM and the IC50 was more than 57.5 µM.
As for `O=C1NCCCNCCCNCCCNC(=O)c2cccc1n2`, the EC50 was more than 200 µM and the IC50 amounted to 186 µM.
As for `CC(C)[Si](Oc1cc2c3c(ccc2c(O)c1[C@@H](C)CO[Si](C)(C)C(C)(C)C)C(C)(C)CCC3)(C(C)C)C(C)C`, the EC50 is more than 200 µM and the half-inhibitory concentration (IC50) turned out to be 40.7 µM.
For `CC(=O)Nc1ccc(/C=C2\SC(=S)N(C=C(C#N)C#N)C2=O)cc1`, the EC50 was more than 200 µM and the IC50 turned out to be 49 µM.
For `O=C1Sc2cc3c(cc2C(=O)N2CCCC12)OCO3` (centres undefined), in that order: more than 182 µM and 129 µM.
In the same order, the values of `COc1cc(/C=N/NC2=NCCCCN2)ccc1O` are more than 200 µM and more than 200 µM.
As to `S=C(NNC1=NCCCCN1)Nc1ccccc1`, the EC50 was more than 200 µM and the IC50 turned out to be 112 µM.
With `Cc1nc2c(sc3nc4ccccc4n32)c(=O)[nH]1`, the EC50 is more than 100 µM and the IC50 is more than 100 µM.
Consider `Oc1c(CN2CCCC2)ccc2ccccc12`, for which the EC50 was more than 200 µM and the IC50 was more than 200 µM.
For the compound `Clc1c(C(Cl)(Cl)Cl)nsc1N1CCCCC1`, the EC50 was more than 200 µM and the IC50 is 72.4 µM.
For `O=C1C2CCC3C1C(C(=O)O)C(C(=O)O)C23` (centres undefined), the EC50 was more than 200 µM and the IC50 was more than 200 µM.
`O=C1NC(N/N=C\C(O)C(O)C(O)C(O)CO)=N/C1=C/c1ccccc1` (centres undefined): the EC50 was more than 200 µM; the IC50 was 105 µM and 31.6 µM and > 200 µM.
Regarding `O=NN1CCN=C1c1ccc([N+](=O)[O-])cc1`, the EC50 was more than 112 µM and the IC50 came to 33.9 µM.
Consider `CC(NC(=O)c1ccccc1SC(=O)CCCCC[n+]1ccccc1)C(N)=O` (centres undefined), for which the EC50 was 2.75 µM and the IC50 came to 30.2 µM.
Consider `CCOC(=O)Cc1[nH]c(C(=O)c2ccccc2)cc1C(=O)c1ccccc1`, for which the EC50 was more than 200 µM and the IC50 came to 30.2 µM.
For the compound `CN1CC(C(=O)NC2(C)OC3(O)C4CCCN4C(=O)C(Cc4ccccc4)N3C2=O)C=C2c3cccc4[nH]cc(c34)CC21` (centres undefined), the EC50 is more than 61.7 µM and the IC50 was 28.8 µM.
With `COc1cccc(/C=C/C(=O)c2ccccc2)c1`, the EC50 was more than 57.5 µM and the IC50 is 11 µM.
On to `COC1C(O)CC(OC2CC(OC3CC(O[C@@H]4C(=O)c5c(cc6cc(OC7CC(OC8CC(O)C(O)C(C)O8)C(O)C(C)O7)c(C)c(O)c6c5O)C[C@H]4[C@H](OC)C(=O)[C@@H](O)[C@@H](C)O)OC(C)C3O)OC(C)C2O)OC1C` (some centres undefined), for which the EC50 was more than 0.166 µM and the IC50 was 0.011 µM.
In the same order, the values of `Cc1ccc(S(=O)(=O)Nn2c(S)c(C#N)c(-c3ccc(Cl)cc3)c(C#N)c2=O)cc1` are more than 200 µM and 12 µM.
With `Oc1ccccc1C=Nc1ccc(Oc2ccc(Cl)cc2)c(Cl)c1`, the EC50 is more than 200 µM and the concentration for half-maximal inhibition (IC50) amounted to 13.2 µM.
On to `CCOC(=O)C1=C(NNC(=O)Cc2ccccc2)CSC1=Nc1ccccc1`, for which the EC50 is more than 18.2 µM and the half-inhibitory concentration (IC50) is more than 18.2 µM.
As to `CC(=O)N1C(=O)C(=O)c2ccccc21`, the EC50 is more than 200 µM and the concentration for half-maximal inhibition (IC50) was more than 200 µM.
With `c1ccc(N2CCN(CCN3CCc4c([nH]c5ccccc45)C3c3cccnc3)CC2)cc1` (centres undefined), the EC50 is more than 2.4 µM and the half-maximal inhibitory concentration (IC50) is more than 2.4 µM.
Consider `CCOC(=O)C1(C)CCC(C(C(=O)O)C(=O)O)CC1=O` (centres undefined), for which the outcome was inactive.
`Nc1nc(Cl)cc2nsnc12`: the EC50 is more than 28.2 µM and the IC50 was more than 28.2 µM.
Take `COc1ccc(S(=O)(=O)Cc2ccc(C(=O)O)cc2)cc1`: the EC50 is more than 813 µM and the IC50 is more than 813 µM.
`O=c1c2ccccc2oc2cc(C(O)c3ccccc3)ccc12` (centres undefined): the EC50 was more than 200 µM and the IC50 was 97.7 µM.
On to `NC(=O)CCCCC1CCSS1` (centres undefined), for which the EC50 is more than 457 µM and the half-inhibitory concentration (IC50) was more than 457 µM.
Take `O=c1[nH]c(=O)n(C2OC(CO)C(O)C2O)cc1OCc1ccccc1` (centres undefined): the EC50 is more than 708 µM and the IC50 was more than 708 µM.
Turning to `O=c1c2cc(Br)ccc2ncn1COCc1ccccc1`, the EC50 was more than 200 µM and the IC50 came to 89.1 µM.
